Where two headings read alike, the source gives them in different places.
Experiments:
C1 B-ALL cell line = test: Cytotoxicity assay, C1; type: cell-based, human; conditions: four days in culture, Alamar blue assay or automated microscopy, ± SD, three experiments
Experimental: (§1) Cell lines were cultured in Opti-MEM medium (Gibco, Life Technologies Corporation, Burlington, Ontario) supplemented with 10% heat inactivated fetal bovine serum (FBS) (Gibco), 100 units/ml penicillin and 100 units/ml streptomycin (Gibco) and 0.05 mM 2-mercaptoethanol (Sigma-Aldrich, Oakville, Ontario) in T25 flasks (Nalge Nunc, Rochester, New York) or T75 flasks (Corning Incorporated, Corning, New York). All cell cultures were maintained at 37°C in a humidified incubator with 5% CO2.
(§2) For cytotoxicity profiling of Aurora kinase inhibitors against leukemia cell lines, inhibitors or vehicle control (DMSO, Sigma-Aldrich) were diluted in 100 µl of Opti-MEM per well in 96 well plates (Grenier Bio-One, Monroe, North Carolina) in triplicate at final concentrations ranging from 1×10^−6 to 10 µM. 1×10^4 cells per well were seeded and plates were incubated for 4 days. Following incubation for 4 days, cell survival was quantified by Alamar blue assay (Invitrogen) or automated inverted microscopy using the Celigo Cell Cytometer (Cyntellect, San Diego, California). […] During this period of incubation, the absorbance at 570–620 nm was measured (Opsys MR Plate Reader, Dynex Technologies, Chantilly, Virginia) at various time points, depending on the cell line or sample. Percent survival was calculated by comparing the absorbance ratio of the test well to the control well multiplied by 100%, as indicated in the following formula: […]
(§3) For automated inverted microscopy, the number of cells in each well was determined using the direct cell counting application as described previously. Briefly, following adjustment of image acquisition settings for bright-field imaging, the wells containing cells and appropriate dilutions of inhibitors were individually scanned. Based on these images, analysis parameters, including intensity threshold and cell diameter, were modified for optimal inclusion of viable cells in treated and control wells. These parameters were applied for subsequent replicates involving the same leukemia cell line or sample. The percent survival was then calculated as a ratio of the number of cells in treated wells to the number of cells in control wells multiplied by 100%. Given that Aurora kinase inhibitors interfere with cytokinesis, cells that are committed to death may still contain enlarging but intact cytoplasmic content before the eventual loss of cytoplasmic membrane integrity. The accuracy of Alamar blue assay may be, in theory, affected by the timing of these events.

SEM B-ALL cell line = test: Cytotoxicity assay, SEM; type: cell-based; conditions: Homo sapiens, 96 h, four days in culture, Alamar blue assay or automated microscopy, ± SD, three experiments
Experimental: as §1, §2, §3

B1 B-ALL cell line = test: Cytotoxicity assay, B1; type: cell-based, human; conditions: four days in culture, Alamar blue assay or automated microscopy, ± SD, three experiments
Experimental: as §1, §2, §3

UOCB1 B-ALL cell line = test: Cytotoxicity assay, UOCB1; type: cell-based, human; conditions: four days in culture, Alamar blue assay or automated microscopy, ± SD, three experiments
Experimental: as §1, §2, §3

Nalm6 B-ALL cell line = test: Cytotoxicity assay, Nalm6; type: cell-based, human; conditions: four days in culture, Alamar blue assay or automated microscopy, ± SD, three experiments
Experimental: as §1, §2, §3

KOPN8 B-ALL cell line = test: Cytotoxicity assay, KOPN8; type: cell-based, human; conditions: four days in culture, Alamar blue assay or automated microscopy, ± SD, three experiments
Experimental: as §1, §2, §3

Molt-3 T-ALL cell line = test: Cytotoxicity assay, Molt-3; type: cell-based, human; conditions: T-ALL cell line Molt-3, four days in culture, Alamar blue assay or automated microscopy, ± SD, three experiments
Experimental: as §1, §2, §3

Molm13 AML cell line = test: Cytotoxicity assay, Molm13; type: cell-based, human; conditions: four days in culture, Alamar blue assay or automated microscopy, ± SD, three experiments
Experimental: as §1, §2, §3

MV4-11 AML cell line = test: Cytotoxicity assay, MV4-11; type: cell-based, human; conditions: AML cell line MV4-11, four days in culture, Alamar blue assay or automated microscopy, ± SD, three experiments
Experimental: as §1, §2, §3

TIB-202 AML cell line = test: Cytotoxicity assay, TIB-202; type: cell-based, human; conditions: AML cell line TIB-202, four days in culture, Alamar blue assay or automated microscopy, ± SD, three experiments
Experimental: as §1, §2, §3

NB4 APML cell line = test: Cytotoxicity assay, NB4; type: cell-based, human; conditions: four days in culture, Alamar blue assay or automated microscopy, ± SD, three experiments
Experimental: as §1, §2, §3

HL-60 APML cell line = test: Cytotoxicity assay, HL-60; type: cell-based, human; conditions: APML cell line HL-60, four days in culture, Alamar blue assay or automated microscopy, ± SD, three experiments
Experimental: as §1, §2, §3

HL-60 RA APML cell line = test: Cytotoxicity assay, HL-60 RA; type: cell-based, human; conditions: APML cell line HL-60 RA, four days in culture, Alamar blue assay or automated microscopy, ± SD, three experiments
Experimental: as §1, §2, §3

Normal Lymphocytes = test: Cytotoxicity assay, normal lymphocytes; type: cell-based, human; conditions: normal lymphocytes (control for non-leukemia cytotoxicity), four days in culture, ± SD, three experiments
Experimental: (§4) These include B-ALL (Patient #1), relapsed AML (Patient #2), AML/CML (Patient #3), infant ALL (Patient #4), and initial ALL presenting with secondary AML (Patient #5). […] The diluted sample was then layered on a Ficoll-Paque (GE Healthcare, Piscataway, New Jersey) gradient at a 1∶2 ratio of Ficoll to diluted sample. Samples were then centrifuged 1800 rpm for 20 minutes at room temperature. The buffy coat was removed with a pipette and transferred to a new centrifuge tube and diluted with PBS. After an additional centrifugation at 1200 rpm, the white blood cell pellet was washed with PBS and centrifuged one last time. Cells were re-suspended in Opti-MEM and viable cells were counted using trypan blue (Invitrogen, Life Technologies Corporation, Burlington, Ontario) exclusion on a haemocytometer. An identical protocol was followed for the isolation of white blood cells, referred to as “normal lymphocytes” in the following paragraphs, from healthy volunteers. Samples grown in culture for up to six months were cultured in Opti-MEM medium supplemented with 10% heat inactivated FBS, penicillin/streptomycin and 2-mercaptoethanol.
as §2, §3

Bone Marrow Stroma = test: Cytotoxicity assay, bone marrow stroma; type: cell-based, human; conditions: bone marrow stroma (control for non-leukemia cytotoxicity), four days in culture, ± SD, three experiments
Experimental: as §2, §3

[1] = tested on: Patient #1 B-ALL primary leukemia cells; test: Cytotoxicity assay, primary sample Patient #1; type: cell-based, human; conditions: four days in culture, Alamar blue assay or automated microscopy, one complete study
Experimental: as §4, §2, §3

[2] = tested on: Patient #2 relapsed AML primary leukemia cells; test: Cytotoxicity assay, primary sample Patient #2; type: cell-based, human; conditions: four days in culture, Alamar blue assay or automated microscopy, one complete study
Experimental: as §4, §2, §3

[3] = tested on: Patient #3 AML/CML primary leukemia cells; test: Cytotoxicity assay, primary sample Patient #3; type: cell-based, human; conditions: Homo sapiens, 96 h, four days in culture, Alamar blue assay or automated microscopy, one complete study
Experimental: as §4, §2, §3

[4] = tested on: Patient #4 infant leukemia primary cells; test: Cytotoxicity assay, primary sample Patient #4; type: cell-based, human; conditions: four days in culture, Alamar blue assay or automated microscopy, one complete study
Experimental: as §4, §2, §3

[5] = tested on: Patient #5 ALL/AML primary leukemia cells; test: Cytotoxicity assay, primary sample Patient #5; type: cell-based, human; conditions: primary sample, four days in culture, Alamar blue assay or automated microscopy, one complete study, read-out: IC50, Patient #5 ALL/AML
Experimental: as §4, §2, §3

[6] = tested on: normal cells versus leukemia cell lines; test: Comparison of cytotoxicity IC50 values, normal cells versus leukemia cell lines; type: cell-based, human; conditions: normal lymphocytes and bone marrow stroma versus leukemia cell lines of Table 2
Experimental: as §2, §3

Aurora-A = tested on: Aurora-A; parameters: method as in earlier work; conditions: read-out: Targets (IC50 Value): Aurora-A, cited from earlier work
Aurora-C = conditions: read-out: Targets (IC50 Value): Aurora-C; literature values; ref [10],[40],[44]–[64] as listed per inhibitor in Table 1; cited from earlier work
CEM T-ALL cell line = test: Cytotoxicity assay, CEM; type: cell-based, human; conditions: four days in culture, Alamar blue assay or automated microscopy, ± SD, three experiments
Experimental: as §1, §2, §3

Aurora-B = tested on: Aurora-B; parameters: method as in earlier work; conditions: literature values; ref [10],[22],[27],[40],[44]–[64] as listed per inhibitor in Table 1; read-out: Targets (IC50 Value): Aurora-B; cited from earlier work
[7] = literature values, ref [10],[22],[27],[40],[44]–[64] as listed per inhibitor in Table 1

Cc1cc(Nc2cc(N3CCN(C)CC3)nc(Sc3ccc(NC(=O)C4CC4)cc3)n2)[nH]n1 [VX-680]
IC50 (C1 B-ALL cell line; Homo sapiens, 96 h): 0.4 nM
IC50 (SEM B-ALL cell line): 60 ± 20 nM
IC50 (B1 B-ALL cell line; Homo sapiens, 96 h): 5 ± 3 nM
IC50 (UOCB1 B-ALL cell line; Homo sapiens, UoC-B1, 96 h): < 0.001 nM
IC50 (Nalm6 B-ALL cell line; Homo sapiens, NALM-6, 96 h): 0.2 nM
IC50 (KOPN8 B-ALL cell line; Homo sapiens, KOPN-8, 96 h): 3 ± 0.5 nM
IC50 (Molt-3 T-ALL cell line; Homo sapiens, 96 h): 0.9 nM
IC50 (Molm13 AML cell line; Homo sapiens, MOLM-13, 96 h): 4 ± 2 nM
IC50 (MV4-11 AML cell line; Homo sapiens, 96 h): 2 ± 1 nM
IC50 (TIB-202 AML cell line; Homo sapiens, 96 h): 7 ± 3 nM
IC50 (NB4 APML cell line; Homo sapiens, 96 h): 7 ± 2 nM
IC50 (HL-60 APML cell line; Homo sapiens, 96 h): 60 ± 5 nM
IC50 (HL-60 RA APML cell line; Homo sapiens, 96 h): 1 ± 0.5 nM
IC50 (Normal Lymphocytes; Homo sapiens, Lymphocyte, 96 h): 5000 ± 900 nM
IC50 (Bone Marrow Stroma; Homo sapiens, 96 h): > 10000 nM
IC50 ([1]; Homo sapiens, 96 h): 0.09 nM
IC50 ([2]; Homo sapiens, 96 h): 100 nM
IC50 [3]: 2000 nM
IC50 ([4]; Homo sapiens, 96 h): 1000 nM
IC50 ([5]; Homo sapiens, 96 h): 0.5 nM
IC50 values for the normal cells compared with IC50 values for the leukemia cell lines (potential therapeutic window) [6]: higher than the IC50 values for the leukemia cell lines

CN(C)c1ccc(-c2nc3ncc(Cl)c(N4CCN(CC(=O)Nc5nccs5)CC4)c3[nH]2)cc1 [CCT129202]
IC50 (C1 B-ALL cell line): 3000 ± 800 nM
IC50 (B1 B-ALL cell line): 3000 ± 600 nM
IC50 (UOCB1 B-ALL cell line): 900 ± 90 nM
IC50 (Nalm6 B-ALL cell line): 2000 ± 800 nM
IC50 (KOPN8 B-ALL cell line): 700 ± 100 nM
IC50 (CEM T-ALL cell line): 900 ± 50 nM
IC50 (Molt-3 T-ALL cell line): 2000 ± 600 nM
IC50 (Molm13 AML cell line): 5000 ± 900 nM
IC50 (MV4-11 AML cell line): 100 ± 60 nM
IC50 (TIB-202 AML cell line): 50 ± 5 nM
IC50 (NB4 APML cell line): > 10000 nM
IC50 (HL-60 APML cell line): 7000 ± 800 nM
IC50 (HL-60 RA APML cell line): 8000 ± 500 nM
IC50 (Normal Lymphocytes): > 10000 nM
IC50 (Bone Marrow Stroma): 1000 ± 700 nM
IC50 [1]: 700 nM
IC50 [2]: 400 nM
IC50 [4]: > 10000 nM
IC50 [5]: 70 nM
IC50 values for the normal cells compared with IC50 values for the leukemia cell lines (potential therapeutic window) [6]: lower than the IC50 values for the normal cells, but not as pronounced
IC50 (Aurora-A; [7]): 40 nM
IC50 (Aurora-B): 200 nM

CCN(CCCOc1ccc2c(Nc3cc(CC(=O)Nc4cccc(F)c4)n[nH]3)ncnc2c1)CCOP(=O)(O)O [AZD1152]
IC50 (C1 B-ALL cell line; Homo sapiens, 96 h): 0.8 nM
IC50 (SEM B-ALL cell line): 100 ± 60 nM
IC50 (B1 B-ALL cell line; Homo sapiens, 96 h): 200 ± 100 nM
IC50 (UOCB1 B-ALL cell line; Homo sapiens, UoC-B1, 96 h): 0.6 nM
IC50 (Nalm6 B-ALL cell line; Homo sapiens, NALM-6, 96 h): 8 ± 2 nM
IC50 (KOPN8 B-ALL cell line; Homo sapiens, KOPN-8, 96 h): 0.2 nM
IC50 (CEM T-ALL cell line; Homo sapiens, 96 h): < 0.001 nM
IC50 (Molt-3 T-ALL cell line; Homo sapiens, 96 h): < 0.001 nM
IC50 (Molm13 AML cell line; Homo sapiens, MOLM-13, 96 h): 7 ± 3 nM
IC50 (MV4-11 AML cell line; Homo sapiens, 96 h): 0.9 nM
IC50 (TIB-202 AML cell line; Homo sapiens, 96 h): 500 ± 200 nM
IC50 (NB4 APML cell line; Homo sapiens, 96 h): 50 ± 20 nM
IC50 (HL-60 APML cell line; Homo sapiens, 96 h): 300 ± 90 nM
IC50 (HL-60 RA APML cell line; Homo sapiens, 96 h): 0.7 nM
IC50 (Normal Lymphocytes; Homo sapiens, Lymphocyte, 96 h): > 10000 nM
IC50 (Bone Marrow Stroma; Homo sapiens, 96 h): > 10000 nM
IC50 ([1]; Homo sapiens, 96 h): 0.005 nM
IC50 ([2]; Homo sapiens, 96 h): 600 nM
IC50 [3]: > 10000 nM
IC50 ([4]; Homo sapiens, 96 h): > 10000 nM
IC50 ([5]; Homo sapiens, 96 h): 0.02 nM
IC50 values for the normal cells compared with IC50 values for the leukemia cell lines (potential therapeutic window) [6]: higher than the IC50 values for the leukemia cell lines
